Assay [1] concerns the target T1, VEGFR-2 (Homo sapiens, UniProt P35968).
T1 construct: purchased BPS Biosciences 40325
As to the kind of experiment: VEGFR-2 kinase assay kit (BPS), Kinase-Glo Max luminescence. The assay is classed as biochemical. Particulars: VEGFR-2, single dose 10 µM, duplicate, mean ± SD. As for the experimental part:
2. Biochemical kinase assay procedure
The inhibitory activity against different kinases was determined using kinase kits […]
from BPS Biosciences and kinase-Glo Max luminescence kinase assay kit (Promega).
The assay was carried out according to the protocol provided by the manufacturer. A stock solution of the synthesized derivatives in 100% DMSO was prepared. Subsequently, the compounds were diluted to 10% DMSO.
A master mixture was prepared according to the number of wells. For VEGFR-2 and FGFR-1 biochemical assays each well include 6 μl of 5x Kinase Buffer 1 + 1 μl of 500 μM ATP + 1 μl of PTK Substrate (Poly-Glu,Tyr 4:1) (10 mg/ml) + 17 μl of distilled water. For BRAF assay each well include 6 μl of 5x Kinase Buffer 1 + 1 μl of ATP (500 μM) + 10 μl of 5X Raf substrate + 8 μl of distilled water. 1x Kinase buffer 1 was prepared by mixing 600 μl of 5x Kinase Buffer 1 with 2400 μl water to give 3 mL. Kinases were thawed on ice and were diluted with 1x Kinase Buffer 1.
To start the biochemical reaction, 25 µL of the master mixture was added to each well in 96 well plate. 5 µL of 10% DMSO was added to positive control wells and blank wells. 5 µL of diluted inhibitor was added to each well labelled with the test inhibitor so that the final concentration of DMSO is 1% in all reactions. Then 20 µL of (1 ng / μl) in case of VEGFR-2 and FGFR-1 or (2.5 ng/μl) in case of BRAF in 1x kinase buffer was added to positive control wells and wells labelled with the inhibitor, while 20 µL 1x kinase buffer 1 was added to the […]
The plate was incubated at 30 °C for 45 min. Subsequently, 50 μl of Kinase-Glo Max luminescence reagent was added to each well and the plate was covered with aluminum foil and incubated at room temperature 15 min. Finally, the luminescence was recorded using multimode microplate reader. Kinase activity assays were performed in duplicate at each […]
The luminescence data were analyzed as follows. The difference between luminescence intensities in the absence of kinase (Lut) and in the presence of kinase (Luc) was defined as 100 % activity (Lut – Luc). Using luminescence signal (Lu) in the presence of the compound, % activity was calculated as: % activity = {(Lut - Lu)/(Lut - Luc)}×100%. The […]
concentration of the test compounds required to reduce the kinase activity by 50% was determined from dose-response curves and recorded as their IC50. […]
(In general: In Kinase-Glo more light means more ATP remaining.)

Assay [2] concerns NCI panel of 60 tumor cell lines. Briefly: NCI SRB growth inhibition, whole panel mean (single dose 10 µM / five-dose). Type of assay: cell-based, human. Particulars: for GI50: mean over NCI cancer cell lines, five-dose. As for the experimental part:
(§1) Screening of cytotoxic activity against a panel of sixty human tumor cell lines The selected compounds by NCI were evaluated for their anticancer activity in a two- stage process. […] Then, the output from the single dose screen is reported as a mean graph. […] Assay protocol. […] For a typical screening experiment, cells are inoculated into 96 well microtiter plates in 100 µL at plating densities ranging from 5000 to 40,000 cells/well depending on the doubling time of individual cell lines. […] After 24 h, two plates of each cell line are fixed in situ with TCA, to represent a measurement of the cell population for each cell line at the time of drug addition (Tz). The experimental drugs are solubilized in dimethyl sulfoxide at 400-fold the desired final maximum test concentration and stored frozen prior to use. At the time of drug addition, an aliquot of frozen concentrate is thawed and diluted to twice the desired final maximum test concentration with complete medium containing 50 µg/mL gentamicin. Additional four, 10-fold or ½ log serial dilutions are made to provide a total of five drug concentrations plus control. Aliquots of 100 mL of these different drug dilutions are added to the appropriate microtiter wells already containing […] of medium, resulting in the required final drug concentrations. […] For adherent cells, the assay is terminated by the addition of cold TCA. […] The supernatant is discarded, and the plates are washed five times with tap water and air dried. Sulforhodamine B (SRB) solution ([…]) at 0.4% (w/v) in 1% acetic acid is added to each well, and plates are incubated for 10 min at room temperature. After staining, unbound dye is removed by washing five times with 1% acetic acid and the plates are air dried. […] Using the seven absorbance measurements [time zero, (Tz), control growth, (C), and test growth in the presence of drug at the five concentration levels (Ti)], the percentage growth is calculated at each of the drug concentrations levels. Percentage growth inhibition is calculated as: [(Ti Tz)/(C–Tz)] x 100 for concentrations for which Ti>/=Tz and [(Ti-Tz)/Tz] x 100 for concentrations for which Ti < Tz. Three dose response parameters are calculated for each experimental agent. […] The drug concentration resulting in total growth inhibition (TGI) is calculated from Ti = Tz. […] Values are calculated for each of these three parameters if the level of activity is reached; however, if the effect is not reached or is exceeded, the value for that parameter is expressed as greater or less than the maximum or minimum concentration tested.

Assay [3] relates to COLO 205. Briefly: NCI SRB growth inhibition (single dose 10 µM / five-dose). The assay is classed as cell-based, human. Particulars: for GI50: COLO 205, Colon cancer, five-dose; for inhibition at 10 µM: read-out: GI%. Here is the method:
as §1

The subject of assay [4] is DU-145. Described as above. The assay is classed as cell-based, human. Particulars: for GI50: DU-145, Prostate cancer, five-dose; for inhibition at 10 µM: read-out: GI%. As for the experimental part: as §1
Assay [5] deals with EKVX. The description is as above. The settings on record: for GI50: EKVX, Non-small cell lung cancer, five-dose; for inhibition at 10 µM: read-out: GI%. The assay is classed as cell-based, human. Here is the method: as §1
Assay [6] has as its system HOP-92. Described as above. Type of assay: cell-based, human. Particulars: for inhibition at 10 µM: read-out: GI%. Here is the method: as §1
Assay [7] has as its system KM12. The assay is described as above. The assay is classed as cell-based, human. Particulars: for GI50: KM12, Colon cancer, five-dose; for inhibition at 10 µM: read-out: GI%. Here is the method:
as §1

Assay [8] relates to MDA-MB-468. Described as above. The assay is classed as cell-based, human. The settings on record: for GI50: MDA-MB-468, Breast cancer, five-dose; for inhibition at 10 µM: read-out: GI%. Here is the method:
as §1

Assay [9] deals with NCI-H460. The assay is described as above. Type of assay: cell-based, human. The settings on record: for GI50: NCI-H460, Non-small cell lung cancer, five-dose; for inhibition at 10 µM: read-out: GI%. As for the experimental part: as §1
The subject of assay [10] is NCI-H522. Described as above. Type of assay: cell-based, human. Particulars: for GI50: NCI-H522, Non-small cell lung cancer, five-dose; for inhibition at 10 µM: read-out: GI%. Here is the method:
as §1

The subject of assay [11] is SN12C. The assay is described as above. Particulars: for GI50: SN12C, Renal cancer, five-dose. Type of assay: cell-based, human. As for the experimental part:
as §1

Assay [12] relates to SNB-75. Described as above. The assay is classed as cell-based, human. The settings on record: for GI50: SNB-75, CNS cancer, five-dose; for inhibition at 10 µM: read-out: GI%. As for the experimental part: as §1
For assay [13], the system named is U251. Described as above. Type of assay: cell-based, human. Particulars: for GI50: U251, CNS cancer, five-dose; for inhibition at 10 µM: read-out: GI%. As for the experimental part: as §1
Setting [14] is: Homo sapiens, 10 µM, mean over NCI 60 cell lines, > 100% = lethal effect, read-out: mean growth inhibition % (GI%).
Setting [15] is: Homo sapiens, mean over NCI panel of 60 tumor cell lines, 10 µM, read-out: Mean growth inhibition %.
[16] abbreviates: Homo sapiens, COLO 205 (Colon cancer), 10 µM.
The mark [17] stands for this setting: Homo sapiens, DU-145 (Prostate cancer), 10 µM.
[18] abbreviates: Homo sapiens, EKVX (Non-small cell lung cancer), 10 µM.
Setting [19] is: Homo sapiens, HOP-92 (Non-small cell lung cancer), 10 µM.
[20] abbreviates: Homo sapiens, KM12 (Colon cancer), 10 µM.
[21] abbreviates: Homo sapiens, MDA-MB-468 (Breast cancer), 10 µM.
[22] abbreviates: Homo sapiens, NCI-H460 (Non-small cell lung cancer), 10 µM.
[23] abbreviates: Homo sapiens, NCI-H522 (Non-small cell lung cancer), 10 µM.
Setting [24] is: Homo sapiens, SNB-75 (CNS cancer), 10 µM.
Where [25] appears, read: Homo sapiens, U-251, U251 (CNS cancer), 10 µM.

Three molecules from paper PMC10893631, “Receptor-based pharmacophore modeling, molecular docking, synthesis and biological evaluation of novel VEGFR-2, FGFR-1, and BRAF multi-kinase inhibitors” (BMC Chemistry, 2024) can be followed below.

Like-named read-outs stand apart in the source and are kept apart here.

T1 sequence (P35968 20-1356): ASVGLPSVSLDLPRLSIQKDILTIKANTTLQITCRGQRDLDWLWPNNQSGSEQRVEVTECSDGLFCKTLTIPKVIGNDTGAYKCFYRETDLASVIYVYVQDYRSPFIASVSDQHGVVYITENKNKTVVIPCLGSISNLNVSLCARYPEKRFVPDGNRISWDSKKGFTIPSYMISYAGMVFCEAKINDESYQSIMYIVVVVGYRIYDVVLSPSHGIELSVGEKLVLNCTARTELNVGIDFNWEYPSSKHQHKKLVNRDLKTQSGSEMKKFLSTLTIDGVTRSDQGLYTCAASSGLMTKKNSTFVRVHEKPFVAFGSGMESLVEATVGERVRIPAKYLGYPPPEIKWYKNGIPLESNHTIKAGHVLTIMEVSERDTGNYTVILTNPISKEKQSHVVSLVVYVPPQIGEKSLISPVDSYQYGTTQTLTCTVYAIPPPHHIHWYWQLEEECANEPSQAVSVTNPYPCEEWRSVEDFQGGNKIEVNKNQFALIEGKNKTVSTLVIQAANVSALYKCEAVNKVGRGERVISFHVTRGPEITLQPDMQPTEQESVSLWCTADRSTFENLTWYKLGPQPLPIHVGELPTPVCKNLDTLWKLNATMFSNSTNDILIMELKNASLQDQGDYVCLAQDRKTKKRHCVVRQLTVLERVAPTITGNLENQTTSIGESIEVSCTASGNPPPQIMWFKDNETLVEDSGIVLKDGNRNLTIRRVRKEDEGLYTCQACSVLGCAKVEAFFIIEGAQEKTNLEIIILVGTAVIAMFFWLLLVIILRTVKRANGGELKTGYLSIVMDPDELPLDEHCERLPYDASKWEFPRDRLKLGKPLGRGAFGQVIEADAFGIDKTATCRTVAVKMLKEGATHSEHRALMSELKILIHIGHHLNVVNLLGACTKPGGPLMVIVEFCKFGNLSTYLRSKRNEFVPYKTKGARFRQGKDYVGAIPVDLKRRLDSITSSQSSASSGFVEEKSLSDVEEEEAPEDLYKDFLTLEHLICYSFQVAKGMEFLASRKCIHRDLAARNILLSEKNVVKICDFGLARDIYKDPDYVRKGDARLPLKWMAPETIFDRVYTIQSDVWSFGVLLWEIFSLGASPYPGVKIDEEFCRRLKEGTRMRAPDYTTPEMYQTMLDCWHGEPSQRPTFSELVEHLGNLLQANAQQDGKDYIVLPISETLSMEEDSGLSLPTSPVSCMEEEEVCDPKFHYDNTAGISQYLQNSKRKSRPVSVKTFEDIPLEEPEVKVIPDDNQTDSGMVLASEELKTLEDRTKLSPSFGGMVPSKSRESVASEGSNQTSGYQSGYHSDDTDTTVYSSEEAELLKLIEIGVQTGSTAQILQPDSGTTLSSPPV

The % Inhibition is the drop in the measured response relative to a control, in per cent. A high value points to a strong effect. As a reminder, the GI50 is the concentration at which growth is held to half of that of the control. Low values mean greater sensitivity of the cells, high ones lower sensitivity of the cells. For the molecule “N'-(2-Hydroxybenzylidene)-2-phenyl-1H-benzo[d]imidazole-5-carbohydrazide [8a]”, the “% Inhibition” value in [1] came out at 43.03 ± 2.32%. Further, the “mean growth inhibition % (GI%)” value in assay [2] (10 µM, mean over NCI 60 cell lines, > 100% = lethal effect) came to 97.73%. Also, the GI50 was determined as 3 µM in assay [2]; 1.97 µM in assay [3]; 2.75 µM in assay [4]; 1.85 µM in assay [5]; 3.72 µM in assay [7]; 3.45 µM in assay [8]. Also, the 50% growth inhibitory concentration (GI50) in assay [9] stood at 2.37 µM; in [10], 1.87 µM; in assay [11] it was 4.67 µM; in [12], 2.2 µM; in assay [13], 2.11 µM. For the same molecule, in assay [2] (mean over NCI panel of 60 tumor cell lines, 10 µM), the “Mean growth inhibition %” value was 97.73%. Moreover, the GI% entry in assay [3] (COLO 205 (Colon cancer), 10 µM) is reported as “L (GI% > 100)”; in [4] (DU-145 (Prostate cancer), 10 µM), “L (GI% > 100)”; in [5] (EKVX (Non-small cell lung cancer), 10 µM) it was 96.49%; in assay [6] (HOP-92 (Non-small cell lung cancer), 10 µM), “L (GI% > 100)”; in assay [7] (KM12 (Colon cancer), 10 µM), 84.00%; in assay [8] (MDA-MB-468 (Breast cancer), 10 µM), 99.81%. Further, the GI% entry is “L (GI% > 100)” in assay [9] (NCI-H460 (Non-small cell lung cancer), 10 µM); “L (GI% > 100)” in assay [10] (NCI-H522 (Non-small cell lung cancer), 10 µM); “L (GI% > 100)” in assay [12] (SNB-75 (CNS cancer), 10 µM); “L (GI% > 100)” in assay [13] (U251 (CNS cancer), 10 µM).

For the molecule `COc1cc(C=NNC(=O)c2ccc3[nH]c(-c4ccc(Cl)cc4)nc3c2)cc(OC)c1OC` [8u, 2-(4-Chlorophenyl)-N'-(3,4,5-trimethoxybenzylidene)-1H-benzo[d]imidazole-5-carbohydrazide], the inhibition at 10 µM is 80 ± 3.98% in [1]; more than 100% in assay [2] (setting [14]); more than 100% in assay [2] (setting [15]); more than 100% in assay [3] (setting [16]); more than 100% in [4] (setting [17]); 90.8% in [5] (setting [18]). For the same molecule, the inhibition at 10 µM in assay [6] (setting [19]), in assay [7] (setting [20]), in assay [8] (setting [21]), in assay [9] (setting [22]), in assay [10] (setting [23]) and in assay [12] (setting [24]) was more than 100% in each case. The inhibition at 10 µM in assay [13] (setting [25]) is more than 100%. For the same molecule, the 50% growth inhibitory concentration (GI50) in [2] (Homo sapiens) was 7.98 µM; in assay [3] (Homo sapiens), 2.84 µM; in assay [4] (Homo sapiens), 6.77 µM; in [5] (Homo sapiens), 14.8 µM; in [6] (Homo sapiens, HOP-92, Non-small cell lung cancer, five-dose), 5.95 µM; in assay [7] (Homo sapiens), 4.5 µM. Further, the GI50 in assay [8] (Homo sapiens) amounted to 3.27 µM; in assay [9] (Homo sapiens) it was 3.19 µM; in [10] (Homo sapiens) it was 4.9 µM; in assay [11] (Homo sapiens) it was 3.22 µM; in assay [12] (Homo sapiens) it was 1.28 µM; in assay [13] (Homo sapiens, U-251) it was 2.59 µM.

As to `COc1ccc(-c2nc3cc(C(=O)NN=Cc4ccc(OC)c(O)c4)ccc3[nH]2)cc1` [8l, N'-(3-Hydroxy-4-methoxybenzylidene)-2-(4-methoxyphenyl)-1H-benzo[d]imidazole-5-carbohydrazide], the inhibition at 10 µM in [1] amounted to 50.6 ± 5.29%; in assay [2] (setting [14]) it was 34.4%; in assay [2] (setting [15]) it was 34.4%; in assay [3] (setting [16]), 76.8%; in [4] (setting [17]) it was 27.9%; in assay [5] (setting [18]) it was 12.9%. The inhibition at 10 µM in [6] (setting [19]) came out at 17.4%; in assay [7] (setting [20]) it was 34.5%; in [8] (setting [21]), 44.4%; in [9] (setting [22]), 15%; in assay [10] (setting [23]), 38.2%; in assay [11] (Homo sapiens, SN12C (Renal cancer), 10 µM, read-out: GI%), 27%. Besides, the inhibition at 10 µM was found to be 25.8% in assay [12] (setting [24]) and 44.8% in [13] (setting [25]).
